Reference: ChEMBL document CHEMBL1201862, “PubChem BioAssay data set” (2004)
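Protocol summary: plate cells (96-well), add compound at 5 concentrations, incubate 48 h, interpolate endpoints linearly. At the GI50, growth is halved.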 Active and inactive are the calls of the source. Cut-off read from the data, not from the text of the source: active = GI50 up to about 1.1 µM and inactive = higher.

How the values were obtained:
Test in all cases: growth of human tumour cells (NCI), 48 h
A549 = tested on: A549
COLO 205 = tested on: COLO 205
HCT-116 = tested on: HCT-116
M14 = tested on: M14
MCF7 = tested on: MCF7
OVCAR-4 = tested on: OVCAR-4
RPMI-8226 = tested on: RPMI-8226
SF-295 = tested on: SF-295
SF-539 = tested on: SF-539
SK-MEL-28 = tested on: SK-MEL-28
SN12C = tested on: SN12C
U-251 = tested on: U-251
UACC-62 = tested on: UACC-62
IGROV-1 = tested on: IGROV-1
KM12 = tested on: KM12
Malme-3M = tested on: Malme-3M
NCI-H226 = tested on: NCI-H226
OVCAR-3 = tested on: OVCAR-3
SNB-75 = tested on: SNB-75
UO-31 = tested on: UO-31

Measured: GI50

N#Cc1c(-c2ccc(Cl)cc2)c(C#N)c(=O)n(NS(=O)(=O)c2ccccc2)c1-c1ccccc1
inactive: A549 > 25 µM | COLO 205 > 25 µM | HCT-116 > 25 µM | M14 > 25 µM | MCF7 19.8 µM | OVCAR-4 > 25 µM | RPMI-8226 17.2 µM | SF-295 > 25 µM | SF-539 > 25 µM | SK-MEL-28 > 25 µM | SN12C > 25 µM | U-251 > 25 µM | UACC-62 > 25 µM

COc1ccc(C(C)Nc2cc(OC)c(OC)c(OC)c2)cc1 (centres undefined)
inactive: A549 5.62 µM | COLO 205 2.48 µM | HCT-116 3.58 µM | IGROV-1 7.13 µM | KM12 2.63 µM | M14 6.21 µM | Malme-3M 3.68 µM | NCI-H226 14.8 µM | OVCAR-3 2.69 µM | OVCAR-4 6.43 µM | RPMI-8226 3.86 µM | SF-295 2.3 µM | SF-539 3.1 µM | SK-MEL-28 3.24 µM | SN12C 7.71 µM | SNB-75 5.75 µM | U-251 2.75 µM | UACC-62 2.91 µM | UO-31 10.5 µM

O=C1OCC2C1C1c3ccccc3C(O)c3ccccc3C21 (centres undefined)
inactive: A549 > 100 µM | COLO 205 > 100 µM | HCT-116 > 100 µM | IGROV-1 > 100 µM | KM12 > 100 µM | M14 > 100 µM | Malme-3M > 100 µM | NCI-H226 > 100 µM | OVCAR-3 > 100 µM | OVCAR-4 > 100 µM | RPMI-8226 > 100 µM | SF-295 > 100 µM | SF-539 > 100 µM | SK-MEL-28 > 100 µM | SN12C > 100 µM | SNB-75 > 100 µM | U-251 > 100 µM | UACC-62 > 100 µM | UO-31 > 100 µM

COc1cccc(N2C(=O)CS(=O)(=O)C2c2cccc(Oc3ccccc3)c2)c1 (centres undefined)
inactive: A549 26.7 µM | COLO 205 6 µM | HCT-116 11.1 µM | KM12 7.67 µM | M14 15.4 µM | MCF7 3.04 µM | Malme-3M 15.9 µM | NCI-H226 19.1 µM | OVCAR-3 19.5 µM | OVCAR-4 28.6 µM | SF-295 16 µM | SF-539 15.1 µM | SK-MEL-28 34 µM | SN12C 17.6 µM | SNB-75 15.6 µM | U-251 16.7 µM | UACC-62 6.1 µM | UO-31 34.4 µM

Cc1cn(Cc2ccccc2CCl)c(=O)[nH]c1=O
inactive: A549 16.9 µM | COLO 205 17.1 µM | HCT-116 4.53 µM | IGROV-1 3.46 µM | KM12 12.9 µM | M14 12.9 µM | MCF7 4.84 µM | Malme-3M 21.3 µM | OVCAR-3 4.24 µM | OVCAR-4 34.3 µM | SF-295 13.8 µM | SF-539 5.56 µM | SK-MEL-28 19.4 µM | SN12C 12.6 µM | SNB-75 14.6 µM | U-251 7.94 µM | UACC-62 4.68 µM | UO-31 11.6 µM

O=C(O)CCC(=O)OCN1C(=O)C2C3C=CC(C2C1=O)C1C2C(=O)N(COC(=O)CCC(=O)O)C(=O)C2C31 (centres undefined)
inactive: A549 > 100 µM | COLO 205 > 57.8 µM | HCT-116 > 37.8 µM | IGROV-1 > 100 µM | KM12 97.5 µM | M14 > 100 µM | Malme-3M > 100 µM | NCI-H226 > 100 µM | OVCAR-3 > 100 µM | OVCAR-4 > 100 µM | RPMI-8226 21.4 µM | SF-295 > 100 µM | SF-539 > 100 µM | SK-MEL-28 > 100 µM | SN12C > 86.5 µM | SNB-75 > 95.7 µM | U-251 > 65.8 µM | UACC-62 > 100 µM | UO-31 98.6 µM

COc1ccc(/C(=C\c2cc(OC)c(OC)c(OC)c2)C(=O)O)cc1
inactive: A549 40.1 µM | COLO 205 18.3 µM | HCT-116 29 µM | IGROV-1 48.4 µM | KM12 25.4 µM | M14 26.6 µM | Malme-3M 55.3 µM | NCI-H226 28.1 µM | OVCAR-3 32 µM | OVCAR-4 85.7 µM | RPMI-8226 27.4 µM | SF-295 19.9 µM | SF-539 14.2 µM | SK-MEL-28 76.4 µM | SN12C 37.9 µM | SNB-75 25.6 µM | U-251 44.6 µM | UACC-62 37 µM | UO-31 25.6 µM

CO[C@H]1/C=C/O[C@@]2(C)Oc3c(C)c(O)c4c(O)c(c(/C=N/N5CCN(C)CC5)c(O)c4c3C2=O)NC(=O)/C(C)=C\C=C\[C@H](C)[C@H](O)[C@@H](C)[C@@H](O)[C@@H](C)[C@H](OC(C)=O)[C@@H]1C [RIFAMPIN]
inactive: A549 > 100 µM | COLO 205 82.6 µM | HCT-116 97.7 µM | IGROV-1 73.6 µM | KM12 > 100 µM | M14 62.1 µM | MCF7 > 100 µM | Malme-3M 37.5 µM | OVCAR-3 24.8 µM | RPMI-8226 52.1 µM | SK-MEL-28 > 100 µM | SN12C > 100 µM | UACC-62 > 100 µM | UO-31 68.4 µM
